Laboratory results from US9701672B2, “Dihydropyridinone MGAT2 inhibitors for use in the treatment of metabolic disorders” (BRISTOL-MYERS SQUIBB COMPANY, priority 2014, dated 2017).

molecular target: human MGAT-2 (Homo sapiens (Human), UniProt Q3SYC2); assay: MGAT LCMS assay (h-MGAT LCMS); assay type: biochemical; conditions: human MGAT2
Experimental: The MGAT enzyme reactions were performed in Corning FALCON® 96-well polypropylene plates, in a total volume of 60 μL of 50 mM potassium phosphate buffer pH 7.4, containing a final concentration of 100 μM 2-oleoylglycerol, 15 μM oleoyl-coenzyme A and 0.0013 μg/μL human or mouse MGAT-2 or 0.0026 μg/μL rat recombinant MGAT-2 membranes expressed in Sf9 cells. Assay plates were run through a fully automated robotics system and shaken for 5 seconds every minute for a total 10 minutes. The reactions were then quenched with 120 μL of ice cold methanol containing 1 μg/mL 1,2-distearoyl-rac-glycerol as the internal standard. Plates were shaken for 2 minutes and spun down to remove protein precipitation. After the spin, samples were transferred to LC/MS compatible PCR plates. For LC/MS analysis, a ThermoFisher Surveyor pump, utilizing a Waters […]® C8, 50×2.1 mm column, was used for the chromatography of enzyme products. The buffer system consists of 0.1% formic acid in water with a mobile phase consisting 0.1% formic acid in methanol. The shallow gradient is 90-100% mobile phase in 0.2 min with a total run time of 2.3 min. The first 0.5 minutes of each injection was diverted to waste to eliminate the presence of phosphate buffer in the enzymatic reaction. The column was run at 0.6 mL/min and a temperature of 65° C. Mass spectrometry analysis of the samples was performed on a ThermoFisher Quantum Triple quad utilizing APCI (+) as the mode of ionization. Data was acquired in Single Ion Monitoring (SIM) mode analyzing Diolein=m/z 603.6 (PRODUCT) and 1,2-distearoyl-rac-glycerol (IS)=m/z 607.6. The ratio of Diolein to internal standard (Peak Area Ratio) is utilized to calculate IC50 values.
“NT” denotes “Not tested”.

human MGAT-2, sequence (Q3SYC2 whole entry): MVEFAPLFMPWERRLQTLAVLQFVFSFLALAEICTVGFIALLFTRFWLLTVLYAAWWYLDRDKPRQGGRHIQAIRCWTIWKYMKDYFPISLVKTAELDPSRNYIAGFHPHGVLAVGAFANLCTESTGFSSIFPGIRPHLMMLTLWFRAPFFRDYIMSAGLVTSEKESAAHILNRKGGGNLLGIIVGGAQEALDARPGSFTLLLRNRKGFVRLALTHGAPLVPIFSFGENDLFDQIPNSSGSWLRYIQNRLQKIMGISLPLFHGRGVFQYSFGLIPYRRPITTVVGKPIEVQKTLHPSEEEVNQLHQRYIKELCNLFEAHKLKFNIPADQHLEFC

Row | IC50 | SMILES
1 | 2000 to 10000 nM | Cc1csc(C2=C(c3nnn[nH]3)C(=O)N[C@@](c3ccc(OCCCC(F)(F)F)cc3)(C(F)(F)F)C2)c1 [Example 10]

same assay, conditions: human MGAT2 membranes expressed in Sf9 cells; 100 μM 2-oleoylglycerol, 15 μM oleoyl-coenzyme A

Row | IC50 | SMILES
2 | 41 nM | Cc1ccc(C2=C(c3nnn[nH]3)C(=O)N[C@@](c3ccc(OCCCC(F)(F)F)cc3)(C(F)(F)F)C2)s1 [Example 2]
3 | 370 nM | O=C1N[C@@](c2ccc(OCCCC(F)(F)F)cc2)(C(F)(F)F)CC(c2ccc(Cl)s2)=C1c1nnn[nH]1 [Example 3]
4 | 7.8 nM | CCCCCCC#C[C@]1(C(F)(F)F)CC(c2ccc(Cl)s2)=C(c2nnn[nH]2)C(=O)N1 [Example 5]
5 | 2.2 nM | CCCCCCC#C[C@]1(C(F)(F)F)CC(c2ccc(Br)s2)=C(c2nnn[nH]2)C(=O)N1 [Example 6]
6 | 9 nM | O=C1N[C@@](c2ccc(OCCCC(F)(F)F)cc2)(C(F)(F)F)CC(c2cc3ccccc3s2)=C1c1nnn[nH]1 [Example 7]
7 | 32 nM | CCc1ccc(C2=C(c3nnn[nH]3)C(=O)N[C@@](c3ccc(OCCCC(F)(F)F)cc3)(C(F)(F)F)C2)s1 [Example 9]
8 | 873 nM | Cc1ccsc1C1=C(c2nnn[nH]2)C(=O)N[C@@](c2ccc(OCCCC(F)(F)F)cc2)(C(F)(F)F)C1 [Example 11]
9 | 363 nM | CN(C)Cc1ccc(C2=C(c3nnn[nH]3)C(=O)N[C@@](c3ccc(OCCCC(F)(F)F)cc3)(C(F)(F)F)C2)s1 [Example 12]
10 | 19.4 nM | Cc1cnc(C2=C(c3nnn[nH]3)C(=O)N[C@@](c3ccc(OCCCC(F)(F)F)cc3)(C(F)(F)F)C2)s1 [Example 13]
11 | 72.1 nM | CN(C)c1ccc(C2=C(c3nnn[nH]3)C(=O)N[C@@](c3ccc(OCCCC(F)(F)F)cc3)(C(F)(F)F)C2)cn1 [Example 14]
12 | 14.5 nM | O=C1N[C@@](c2ccc(OCCCCCC(F)(F)F)cc2F)(C(F)(F)F)CC(c2cnn(C3CC3)c2)=C1c1nnn[nH]1 [Example 15]
13 | 34 nM | O=C1N[C@@](c2ccc(OCCCCCC(F)(F)F)cc2F)(C(F)(F)F)CC(c2ccn(C3CC3)n2)=C1c1nnn[nH]1 [Example 16]
14 | 16.6 nM | O=C1N[C@@](c2ccc(OCCCC(F)(F)F)cc2)(C(F)(F)F)CC(c2ccn(C3CC3)n2)=C1c1nnn[nH]1 [Example 17]
15 | 24.5 nM | O=C1N[C@@](c2ccc(OCCCC(F)(F)F)cc2)(C(F)(F)F)CC(c2cnn(C3CC3)c2)=C1c1nnn[nH]1 [Example 18]
16 | 31.8 nM | O=C1N[C@@](c2ccc(OCCCC(F)(F)F)cc2)(C(F)(F)F)CC(c2ccn(CC3CC3)n2)=C1c1nnn[nH]1 [Example 19]
17 | 74.7 nM | O=C1N[C@@](c2ccc(OCCCC(F)(F)F)cc2)(C(F)(F)F)CC(c2ccn(C3CCC3)n2)=C1c1nnn[nH]1 [Example 20]
18 | 135 nM | O=C1N[C@@](c2ccc(OCCCC(F)(F)F)cc2)(C(F)(F)F)CC(c2ccn(CC3CCC3)n2)=C1c1nnn[nH]1 [Example 21]
19 | 1.2 nM | O=C1N[C@@](c2ccc(CCCCC(F)(F)F)cc2)(C(F)(F)F)CC(c2ccn(CC3CC3)n2)=C1c1nnn[nH]1 [Example 22]
20 | 2.1 nM | CC(C)n1ccc(C2=C(c3nnn[nH]3)C(=O)N[C@@](c3ccc(CCCCC(F)(F)F)cc3)(C(F)(F)F)C2)n1 [Example 23]
21 | 22.9 nM | O=C1N[C@@](c2ccc(CCCCC(F)(F)F)cc2)(C(F)(F)F)CC(c2ccn(C3CC3)n2)=C1c1nnn[nH]1 [Example 24]
22 | 102 nM | O=C1N[C@@](c2ccc(OCCCCCC(F)(F)F)cc2)(C(F)(F)F)CC(c2ccn(C3CC3)n2)=C1c1nnn[nH]1 [Example 25]

Row | IC50 | SMILES
23 | 185 nM | CC(C)(C)n1ccc(C2=C(c3nnn[nH]3)C(=O)N[C@@](c3ccc(OCCCCCC(F)(F)F)cc3)(C(F)(F)F)C2)n1 [Example 27]
24 | 17.6 nM | CN(C)c1ccc(C2=C(c3nnn[nH]3)C(=O)N[C@@](c3ccc(OCCCC(F)(F)F)cc3)(C(F)(F)F)C2)nc1 [Example 28]
25 | 52.1 nM | CCn1ccc(C2=C(c3nnn[nH]3)C(=O)N[C@@](c3ccc(OCCCCCC(F)(F)F)cc3)(C(F)(F)F)C2)n1 [Example 29]
26 | 2.7 nM | O=C1N[C@@](c2ccc(OCCCCCC(F)(F)F)cc2)(C(F)(F)F)CC(c2ccn(CC3CC3)n2)=C1c1nnn[nH]1 [Example 30]
27 | 61.9 nM | CC(C)Cn1ccc(C2=C(c3nnn[nH]3)C(=O)N[C@@](c3ccc(OCCCCCC(F)(F)F)cc3)(C(F)(F)F)C2)n1 [Example 31]
28 | 950 nM | CC(C)n1nc(C2=C(c3nnn[nH]3)C(=O)N[C@@](c3ccc(OCCCCCC(F)(F)F)cc3)(C(F)(F)F)C2)c2ccccc21 [Example 33]
29 | 86.9 nM | CC(C)n1cc(C2=C(c3nnn[nH]3)C(=O)N[C@@](c3ccc(OCCCCCC(F)(F)F)cc3)(C(F)(F)F)C2)c2ccccc21 [Example 34]
30 | 11.5 nM | CN(C)c1cnc(C2=C(c3nnn[nH]3)C(=O)N[C@@](c3ccc(OCCCC(F)(F)F)cc3)(C(F)(F)F)C2)s1 [Example 35]
31 | 34.3 nM | Cc1cnc(C2=C(c3nnn[nH]3)C(=O)N[C@@](c3ccc(OCCCC(F)(F)F)cc3)(C(F)(F)F)C2)nc1 [Example 38]
32 | 16.6 nM | CC(C)n1ccc(C2=C(c3nnn[nH]3)C(=O)N[C@@](c3ccc(OCCCC(F)(F)F)cc3F)(C(F)(F)F)C2)n1 [Example 39]
33 | 6.7 nM | O=C1N[C@@](c2ccc(OCCCC(F)(F)F)cc2F)(C(F)(F)F)CC(c2ccn(C3CCC3)n2)=C1c1nnn[nH]1 [Example 40]
34 | 73.6 nM | O=C1N[C@@](c2ccc(OCCCC(F)(F)F)cc2F)(C(F)(F)F)CC(c2ccn(C3CC3)n2)=C1c1nnn[nH]1 [Example 41]
35 | 3 nM | O=C1N[C@@](c2ccc(CCCCC(F)(F)F)cc2F)(C(F)(F)F)CC(c2ccn(CC3CC3)n2)=C1c1nnn[nH]1 [Example 42]
36 | 20.2 nM | CCn1ccc(C2=C(c3nnn[nH]3)C(=O)N[C@@](c3ccc(OCCCC(F)(F)F)cc3F)(C(F)(F)F)C2)n1 [Example 43]
37 | 15.2 nM | O=C1N[C@@](c2ccc(OCCCCC(F)(F)F)cc2)(C(F)(F)F)CC(c2ccc(C3CC3)s2)=C1c1nnn[nH]1 [Example 44]
38 | 3.5 nM | CN(C)c1cnc(C2=C(c3nnn[nH]3)C(=O)N[C@@](c3ccc(OCCCCC(F)(F)F)cc3)(C(F)(F)F)C2)s1 [Example 45]
39 | 2.7 nM | O=C1N[C@@](c2ccc(CCCCC(F)(F)F)cc2F)(C(F)(F)F)CC(c2ccn(C3CCC3)n2)=C1c1nnn[nH]1 [Example 47]
40 | 4.5 nM | CCn1ccc(C2=C(c3nnn[nH]3)C(=O)N[C@@](c3ccc(CCCCC(F)(F)F)cc3F)(C(F)(F)F)C2)n1 [Example 49]
41 | 9.4 nM | CC(C)Cn1ccc(C2=C(c3nnn[nH]3)C(=O)N[C@@](c3ccc(CCCCC(F)(F)F)cc3F)(C(F)(F)F)C2)n1 [Example 50]
42 | 97.4 nM | CC(C)Cn1ccc(C2=C(c3nnn[nH]3)C(=O)N[C@@](c3ccc(OCCCC(F)(F)F)cc3F)(C(F)(F)F)C2)n1 [Example 51]

Row | SMILES | IC50
43 | O=C1N[C@@](c2ccc(OCCCC(F)(F)F)cc2)(C(F)(F)F)CC(c2ccc(C3CC3)s2)=C1c1nnn[nH]1 [Example 1, (S)-4-(5-Cyclopropylthiophen-2-yl)-3-(1H-tetrazol-5-yl)-6-(4-(4,4,4-trifluorobutoxy)phenyl)-6-(trifluoromethyl)-5,6-dihydropyridin-2(1H)-one] | 2.5 nM
44 | CC(C)n1ccc(C2=C(c3nnn[nH]3)C(=O)N[C@@](c3ccc(OCCCCCC(F)(F)F)cc3)(C(F)(F)F)C2)n1 [Example 26] | 43.7 nM
45 | CC(C)n1ccc(C2=C(c3nnn[nH]3)C(=O)N[C@@](c3ccc(CCCCC(F)(F)F)cc3F)(C(F)(F)F)C2)n1 [Example 46] | 11.4 nM
